Molecular target: T1, hVR1 (Homo sapiens, UniProt Q8NER1)
T1 construct: expressed in transfected cells
Assay: hVR1 FLIPR (Fluorometric Image Plate Reader) screening assay, IC50 determination
Type: cell-based
Details: transfected CHO cells stably expressing hVR1
Procedure: 1. hVR1 FLIPR (Fluorometric Image Plate Reader) Screening Assay
Transfected CHO cells, stably expessing hVR1 (15,000 cells/well) are seeded in 50 ul media in a black clear bottom 384 plate (Greiner) and grown in a humidified incubator (37° C., 2% CO2), 24-30 hours prior to experiment.
Subsequently, the media is removed from the cell plate by inversion and 2 μM Fluo-4 is added using a multidrop (Labsystems). Following the 40 minutes dye incubation in the dark at 37° C. and 2% CO2, the extracellular dye present is washed away using an EMBLA (Scatron), leaving the cells in 40 ul of assay buffer (1×HBSS, 10 mM D-Glucose, 1 mM CaCl2, 10 mM HEPES, 10×7.5% NaHCO3 and 2.5 mM Probenecid).
FLIPR Assay—IC50 Determination Protocol
For IC50 determinations the fluorescence is read using FLIPR filter 1 (em […]). A cellular baseline recording is taken for 30 seconds, followed by a 20 μl addition of 10, titrated half-log concentrations of the test compound, yielding cellular concentration ranging from 3 μM to 0.1 nM. Data is collected every 2 seconds for a further 5 minutes prior to the addition of a VR1 agonist solution: either 50 nM solution of capsaicin or MES (2-[N-morpholino) ethanesulfonic acid) buffer (pH 5.2), by the FLIPR pipettor. The FLIPR continues to collect data for a further 4 minutes. Compounds having antagonistic properties against the hVR1 will inhibit the increase in intracellular calcium in response to the capsaicin addition. This consequently leading to a reduction in fluorescence signal and providing a reduced fluorescence reading, compared with no compound, buffer controls. Data is exported by the FLIPR program as a sum of fluorescence calculated under the curve upon the addition of capsaicin. Maximum inhibition, Hill slope and IC50 data for each compound are generated.

T1 sequence (Q8NER1 whole entry): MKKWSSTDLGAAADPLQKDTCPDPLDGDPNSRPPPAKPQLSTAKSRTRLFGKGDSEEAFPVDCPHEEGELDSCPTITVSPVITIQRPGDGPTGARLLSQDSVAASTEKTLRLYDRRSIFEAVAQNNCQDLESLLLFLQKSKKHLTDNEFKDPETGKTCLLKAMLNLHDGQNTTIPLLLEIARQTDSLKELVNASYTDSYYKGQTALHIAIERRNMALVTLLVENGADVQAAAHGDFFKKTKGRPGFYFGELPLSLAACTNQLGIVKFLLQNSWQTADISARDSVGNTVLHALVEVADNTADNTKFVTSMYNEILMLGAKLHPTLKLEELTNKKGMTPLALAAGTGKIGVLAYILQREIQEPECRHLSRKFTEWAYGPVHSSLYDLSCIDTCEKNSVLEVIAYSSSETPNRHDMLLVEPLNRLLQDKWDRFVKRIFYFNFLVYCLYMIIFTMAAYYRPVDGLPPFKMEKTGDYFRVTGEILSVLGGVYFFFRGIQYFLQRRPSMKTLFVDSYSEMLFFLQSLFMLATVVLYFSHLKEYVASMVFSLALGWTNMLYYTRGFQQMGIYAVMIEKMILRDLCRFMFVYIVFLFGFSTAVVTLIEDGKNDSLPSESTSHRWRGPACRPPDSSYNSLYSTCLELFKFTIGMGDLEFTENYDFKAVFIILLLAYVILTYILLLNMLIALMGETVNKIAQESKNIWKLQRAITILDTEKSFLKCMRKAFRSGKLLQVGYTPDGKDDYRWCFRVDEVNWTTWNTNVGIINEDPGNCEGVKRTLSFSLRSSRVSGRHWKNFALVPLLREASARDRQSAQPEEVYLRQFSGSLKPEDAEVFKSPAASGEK

## O=C(Nc1ccc2sc(CO)nc2c1)c1ccc(Br)cc1 [Example 2, 4-Bromo-N-[2-(hydroxymethyl)-1,3-benzothiazol-5-yl]benzamide]
Agonist H+/MES buffer (pH 5.2)
  IC50: 60 nM
Agonist capsaicin
  IC50: 10 nM

## CC(C)Oc1ccc(C(=O)Nc2ccc3sc(CO)nc3c2)cc1 [Example 19, N-[2-(Hydroxymethyl)-1,3-benzothiazol-5-yl]-4-isopropoxybenzamide]
Agonist H+/MES buffer (pH 5.2)
  IC50: 45 nM
Agonist capsaicin
  IC50: 50 nM

## CC(O)c1nc2cc(NC(=O)c3ccc(C(C)(C)C)cc3)ccc2s1 (centres unmarked) [Example 71, 4-tert-Butyl-N-[2-(1-hydroxyethyl)-1,3-benzothiazol-5-yl]benzamide]
Agonist capsaicin
  IC50: 200 nM
